# Data from PMC12150326 (The Journal of Organic Chemistry, 2025).
# Where two headings read alike, the source gives them in different places.
# Assays:
# Type in all cases: cell-based, human
# 786-0 = tested on: 786-0
# How it was run: (§1)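 TGI-based COMPARE analysis set the response profiles against historical NCI-60 data for established antitubulin compounds, after testing at five log-spaced doses (0.01–100 μM) in the 60-line screen.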
# A549/ATCC = tested on: A549/ATCC
# How it was run: as §1
# COLO 205 = tested on: COLO 205
# How it was run: as §1
# EKVX = tested on: EKVX
# How it was run: (§2)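 The compounds are screened against the NCI-60 lines at 100, 10, 1, 0.1 and 0.01 μM. Growth response is expressed as TGI, and COMPARE correlates the TGI pattern with that of tubulin inhibitors.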
# HL-60(TB) = tested on: HL-60(TB)
# How it was run: (§3)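 NCI-60 panel, 5-dose format (100 μM → 0.01 μM, tenfold steps). TGI values used for COMPARE vs. known tubulin inhibitors.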
# HOP-62 = tested on: HOP-62
# How it was run: as §2
# HOP-92 = tested on: HOP-92
# How it was run: as §1
# HS 578T = tested on: HS 578T
# How it was run: as §1
# IGROV1 = tested on: IGROV1
# How it was run: as §1
# K-562 = tested on: K-562
# How it was run: as §1
# LOX IMVI = tested on: LOX IMVI
# How it was run: as §2
# MALME-3M = tested on: MALME-3M
# How it was run: as §1
# MDA-MB-231/ATCC = tested on: MDA-MB-231/ATCC
# How it was run: as §1
# MDA-MB-435 = tested on: MDA-MB-435
# How it was run: as §2
# MOLT-4 = tested on: MOLT-4
# How it was run: as §1
# NCI-H460 = tested on: NCI-H460
# How it was run: as §1
# NCI-H522 = tested on: NCI-H522
# How it was run: as §1
# OVCAR-8 = tested on: OVCAR-8
# How it was run: as §1
# PC-3 = tested on: PC-3
# How it was run: as §2
# RPMI-8226 = tested on: RPMI-8226
# How it was run: as §1
# SK-MEL-5 = tested on: SK-MEL-5
# How it was run: as §1
# SN12C = tested on: SN12C
# How it was run: as §1
# SNB-19 = tested on: SNB-19
# How it was run: as §2
# SNB-75 = tested on: SNB-75
# How it was run: as §1
# SR = tested on: SR
# How it was run: as §3
# T-47D = tested on: T-47D
# How it was run: as §1
# TK-10 = tested on: TK-10
# How it was run: as §2
# UACC-62 = tested on: UACC-62
# How it was run: as §2
compound,measurement,setting,value
"COc1cc(C)c(-c2ccc(OC)c(=O)cc2C)c(OC)c1OC (single isomer, unassigned) [(aR)-6]",Log10GI50,786-0,-5.35 Molar
same,Log10LC50,786-0,> -4.00 Molar
same,Log10TGI,786-0,> -4.00 Molar
same,GI50,786-0; Homo sapiens,4470 nM
same,Log10GI50,786-0; listed as (aR)-DM-MTC,-5.35 Molar
same,Log10GI50,A549/ATCC,-5.42 Molar
same,Log10LC50,A549/ATCC,> -4.00 Molar
same,Log10TGI,A549/ATCC,> -4.00 Molar
same,GI50,A549/ATCC; Homo sapiens,3800 nM
same,Log10GI50,A549/ATCC; listed as (aR)-DM-MTC,-5.42 Molar
same,Log10GI50,COLO 205,-5.76 Molar
same,Log10LC50,COLO 205,-4.74 Molar
same,Log10TGI,COLO 205,-5.35 Molar
same,GI50,COLO 205; Homo sapiens,1740 nM
same,Log10GI50,COLO 205; listed as (aR)-DM-MTC,-5.76 Molar
same,Log10GI50,EKVX,-5.18 Molar
same,Log10LC50,EKVX,> -4.00 Molar
same,Log10TGI,EKVX,> -4.00 Molar
same,GI50,EKVX; Homo sapiens,6610 nM
same,Log10GI50,EKVX; listed as (aR)-DM-MTC,-5.18 Molar
same,Log10GI50,HL-60(TB),-6.16 Molar
same,Log10LC50,HL-60(TB),> -4.00 Molar
same,Log10TGI,HL-60(TB),-5.10 Molar
same,GI50,HL-60(TB); Homo sapiens,690 nM
same,Log10GI50,HL-60(TB); listed as (aR)-DM-MTC,-6.16 Molar
same,Log10GI50,HOP-62,-5.42 Molar
same,Log10LC50,HOP-62,> -4.00 Molar
same,Log10TGI,HOP-62,> -4.00 Molar
same,GI50,HOP-62; Homo sapiens,3800 nM
same,Log10GI50,HOP-62; listed as (aR)-DM-MTC,-5.42 Molar
same,Log10GI50,HOP-92,-5.45 Molar
same,Log10LC50,HOP-92,> -4.00 Molar
same,Log10TGI,HOP-92,> -4.00 Molar
same,GI50,HOP-92; Homo sapiens,3550 nM
same,Log10GI50,HOP-92; listed as (aR)-DM-MTC,-5.45 Molar
same,Log10GI50,HS 578T,-5.81 Molar
same,Log10LC50,HS 578T,> -4.00 Molar
same,GI50,HS 578T; Homo sapiens,1550 nM
same,Log10GI50,HS 578T; listed as (aR)-DM-MTC,-5.81 Molar
same,Log10GI50,IGROV1,-5.37 Molar
same,Log10LC50,IGROV1,> -4.00 Molar
same,Log10TGI,IGROV1,> -4.00 Molar
same,GI50,"IGROV1; Homo sapiens, IGROV-1",4270 nM
same,Log10GI50,IGROV1; listed as (aR)-DM-MTC,-5.37 Molar
same,Log10GI50,K-562,-6.31 Molar
same,Log10LC50,K-562,> -4.00 Molar
same,Log10TGI,K-562,> -4.00 Molar
same,GI50,"K-562; Homo sapiens, K562",490 nM
same,Log10GI50,K-562; listed as (aR)-DM-MTC,-6.31 Molar
same,Log10GI50,LOX IMVI,-5.69 Molar
same,Log10LC50,LOX IMVI,> -4.00 Molar
same,Log10TGI,LOX IMVI,> -4.00 Molar
same,GI50,LOX IMVI; Homo sapiens,2040 nM
same,Log10GI50,LOX IMVI; listed as (aR)-DM-MTC,-5.69 Molar
same,Log10LC50,MALME-3M,> -4.00 Molar
same,Log10TGI,MALME-3M,> -4.00 Molar
same,Log10GI50,MDA-MB-231/ATCC,-5.59 Molar
same,Log10LC50,MDA-MB-231/ATCC,> -4.00 Molar
same,Log10TGI,MDA-MB-231/ATCC,> -4.00 Molar
same,GI50,MDA-MB-231/ATCC; Homo sapiens,2570 nM
same,Log10GI50,MDA-MB-231/ATCC; listed as (aR)-DM-MTC,-5.59 Molar
same,Log10GI50,MDA-MB-435,-6.57 Molar
same,Log10LC50,MDA-MB-435,> -4.00 Molar
same,Log10TGI,MDA-MB-435,-6.13 Molar
same,GI50,MDA-MB-435; Homo sapiens,270 nM
same,Log10GI50,MDA-MB-435; listed as (aR)-DM-MTC,-6.57 Molar
same,Log10GI50,MOLT-4,-5.58 Molar
same,Log10LC50,MOLT-4,> -4.00 Molar
same,Log10TGI,MOLT-4,> -4.00 Molar
same,GI50,MOLT-4; Homo sapiens,2630 nM
same,Log10GI50,MOLT-4; listed as (aR)-DM-MTC,-5.58 Molar
same,Log10GI50,NCI-H460,-5.55 Molar
same,Log10LC50,NCI-H460,> -4.00 Molar
same,Log10TGI,NCI-H460,> -4.00 Molar
same,GI50,NCI-H460; Homo sapiens,2820 nM
same,Log10GI50,NCI-H460; listed as (aR)-DM-MTC,-5.55 Molar
same,Log10GI50,NCI-H522,-5.73 Molar
same,Log10LC50,NCI-H522,> -4.00 Molar
same,Log10TGI,NCI-H522,-5.27 Molar
same,GI50,NCI-H522; Homo sapiens,1860 nM
same,Log10GI50,NCI-H522; listed as (aR)-DM-MTC,-5.73 Molar
same,Log10GI50,OVCAR-8,-5.47 Molar
same,Log10LC50,OVCAR-8,> -4.00 Molar
same,Log10TGI,OVCAR-8,> -4.00 Molar
same,GI50,OVCAR-8; Homo sapiens,3390 nM
same,Log10GI50,OVCAR-8; listed as (aR)-DM-MTC,-5.47 Molar
same,Log10GI50,PC-3,-5.64 Molar
same,Log10LC50,PC-3,> -4.00 Molar
same,Log10TGI,PC-3,> -4.00 Molar
same,GI50,PC-3; Homo sapiens,2290 nM
same,Log10GI50,PC-3; listed as (aR)-DM-MTC,-5.64 Molar
same,Log10GI50,RPMI-8226,-5.39 Molar
same,Log10LC50,RPMI-8226,> -4.00 Molar
same,Log10TGI,RPMI-8226,> -4.00 Molar
same,GI50,RPMI-8226; Homo sapiens,4070 nM
same,Log10GI50,RPMI-8226; listed as (aR)-DM-MTC,-5.39 Molar
same,Log10GI50,SK-MEL-5,-5.50 Molar
same,Log10LC50,SK-MEL-5,> -4.00 Molar
same,Log10TGI,SK-MEL-5,-4.42 Molar
same,GI50,SK-MEL-5; Homo sapiens,3160 nM
same,Log10GI50,SK-MEL-5; listed as (aR)-DM-MTC,-5.5 Molar
same,Log10GI50,SN12C,-5.46 Molar
same,Log10LC50,SN12C,> -4.00 Molar
same,Log10TGI,SN12C,> -4.00 Molar
same,GI50,SN12C; Homo sapiens,3470 nM
same,Log10GI50,SN12C; listed as (aR)-DM-MTC,-5.46 Molar
same,Log10GI50,SNB-19,-5.53 Molar
same,Log10LC50,SNB-19,> -4.00 Molar
same,Log10TGI,SNB-19,> -4.00 Molar
same,GI50,SNB-19; Homo sapiens,2950 nM
same,Log10GI50,SNB-19; listed as (aR)-DM-MTC,-5.53 Molar
same,Log10GI50,SNB-75,-6.04 Molar
same,Log10LC50,SNB-75,> -4.00 Molar
same,GI50,SNB-75; Homo sapiens,910 nM
same,Log10GI50,SNB-75; listed as (aR)-DM-MTC,-6.04 Molar
same,Log10GI50,SR,-6.44 Molar
same,Log10LC50,SR,> -4.00 Molar
same,Log10TGI,SR,> -4.00 Molar
same,GI50,SR; Homo sapiens,360 nM
same,Log10GI50,SR; listed as (aR)-DM-MTC,-6.44 Molar
same,Log10GI50,T-47D,-5.15 Molar
same,Log10LC50,T-47D,> -4.00 Molar
same,Log10TGI,T-47D,> -4.00 Molar
same,GI50,"T-47D; Homo sapiens, T47D",7080 nM
same,Log10GI50,T-47D; listed as (aR)-DM-MTC,-5.15 Molar
same,Log10GI50,TK-10,-4.18 Molar
same,Log10LC50,TK-10,> -4.00 Molar
same,Log10TGI,TK-10,> -4.00 Molar
same,GI50,TK-10; Homo sapiens,66100 nM
same,Log10GI50,TK-10; listed as (aR)-DM-MTC,-4.18 Molar
same,Log10GI50,UACC-62,-6.03 Molar
same,Log10LC50,UACC-62,> -4.00 Molar
same,Log10TGI,UACC-62,> -4.00 Molar
same,GI50,UACC-62; Homo sapiens,930 nM
same,Log10GI50,UACC-62; listed as (aR)-DM-MTC,-6.03 Molar
